{"source": "patent US20210162013A1", "about": "“COMPOSITIONS AND METHODS FOR IMPROVING THE BIOAVAILABILITY OF GLP1 AND ANALOGUES THEREOF” (Brown University, priority 2018, published 2021)", "key": {"type 2 diabetic patients": {"tested_on": "type 2 diabetic patients", "details": "cited from earlier work"}, "GLP-1 receptor [1]": {"target": "T1, GLP-1 receptor (Homo sapiens, UniProt P43220)", "T1 sequence (P43220 24-463, species assumed)": "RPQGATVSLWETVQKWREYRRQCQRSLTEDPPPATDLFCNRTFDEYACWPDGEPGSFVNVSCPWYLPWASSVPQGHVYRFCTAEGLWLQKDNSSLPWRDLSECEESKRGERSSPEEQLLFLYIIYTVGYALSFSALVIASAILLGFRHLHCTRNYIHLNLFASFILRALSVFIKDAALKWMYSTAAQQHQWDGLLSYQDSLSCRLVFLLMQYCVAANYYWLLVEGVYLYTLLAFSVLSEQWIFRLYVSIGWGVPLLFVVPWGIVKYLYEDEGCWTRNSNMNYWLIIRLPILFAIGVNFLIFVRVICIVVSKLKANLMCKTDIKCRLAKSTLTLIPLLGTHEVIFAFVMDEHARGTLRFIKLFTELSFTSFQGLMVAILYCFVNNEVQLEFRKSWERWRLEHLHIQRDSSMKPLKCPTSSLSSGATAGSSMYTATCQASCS", "details": "cited from earlier work"}, "GLP-1 receptor [2]": {"target": "T1, GLP-1 receptor", "details": "cited from earlier work", "remark": "listed apart in the source"}, "BKS.Cg WT mice": {"tested_on": "BKS.Cg WT mice", "experiment": "Bioavailability: IPGTT, oral PIN/PLA GLP-1 vs intraperitoneal soluble peptide, serum glucose AUC", "format": "in vivo", "experimental": "All mice were then injected intraperitoneally with glucose (3 mg/ml in 0.2 ml saline). Blood was collected at time 0 (pre-glucose) and at indicated times post-glucose. Serum glucose levels were determined as described above."}, "[3]": {"details": "oral, relative to intravenous administration of GLP-1; cited from earlier work"}}, "note": "Read-outs that look alike come from different tables or passages of the source. No end group written: not given here.", "data": [{"substance": "rGLP-1: rGLP-1 given by continuous infusion in a cited study", "values": [{"measurement": "decrease in fasting serum glucose", "setting": "type 2 diabetic patients; 1.25 pmol/kg/min", "value": 22.7, "unit": "mg/dL"}, {"measurement": "decrease in fasting serum glucose", "setting": "type 2 diabetic patients; 2.5 pmol/kg/min", "value": 37.0, "unit": "mg/dL"}, {"measurement": "decrease in fasting serum glucose", "setting": "type 2 diabetic patients; 5.0 pmol/kg/min", "value": 53.9, "unit": "mg/dL"}, {"measurement": "decrease in fasting serum glucose", "setting": "type 2 diabetic patients; 8.5 pmol/kg/min", "value": 76.2, "unit": "mg/dL"}]}, {"substance": "GLP-1(9-36)-NH2 (EGTFTSDVSSYLEGQAAKEFIAWLVKGR-NH2; UniProt P01275 100-127, looked up, fragment)", "values": [{"measurement": "lower binding affinity compared to the intact peptide", "setting": "GLP-1 receptor [1]", "value": 100, "unit": "fold"}, {"measurement": "decrease in agonistic activity", "setting": "GLP-1 receptor [2]", "value": "> 10000", "unit": "fold"}]}, {"substance": "GLP-1 (7-36 amide) [Free]", "values": [{"measurement": "AUC 30 ug (serum glucose area under the curve)", "setting": "BKS.Cg WT mice; 30 ug GLP-1/mouse, Free = intraperitoneal soluble peptide, Encap = oral PIN/PLA particles", "value": 7515}, {"measurement": "AUC 90 ug (serum glucose area under the curve)", "setting": "BKS.Cg WT mice; 90 ug GLP-1/mouse, Free = intraperitoneal soluble peptide, Encap = oral PIN/PLA particles", "value": 7425}, {"measurement": "AUC 250 ug (serum glucose area under the curve)", "setting": "BKS.Cg WT mice; 250 ug GLP-1/mouse, Free = intraperitoneal soluble peptide, Encap = oral PIN/PLA particles", "value": 6262}, {"measurement": "effect on blood glucose in IPGTT (in words)", "setting": "BKS.Cg WT mice; 250 μg GLP-1, oral particles vs intraperitoneal soluble peptide", "value": "superior"}, {"measurement": "mean absolute bioavailability", "setting": "[3]", "value": 4, "unit": "%"}]}]}
